From patent publication US12485169B2, “Compounds” (GREY WOLF THERAPEUTICS LIMITED, priority 2018, dated 2025)

target: T1, Purified ERAP1 (37-941)-10His (ERAP1) (Homo sapiens, UniProt Q9NZ08); experiment: ERAP1 mediated hydrolysis of an amide substrate (10-mer inhibition assay), biochemical system; settings: 10-mer substrate, 23° C., 1 h, excitation 279 nm / emission 355 nm; read-out: IC50 vs Decapeptide WRVYEKC(Dnp)ALK-acid (where Dnp is Dinitrophenyl maleimide) (10-mer)
T1 construct: Purified ERAP1 (37-941)-10His (ERAP1)
T1 sequence (Q9NZ08 37-941): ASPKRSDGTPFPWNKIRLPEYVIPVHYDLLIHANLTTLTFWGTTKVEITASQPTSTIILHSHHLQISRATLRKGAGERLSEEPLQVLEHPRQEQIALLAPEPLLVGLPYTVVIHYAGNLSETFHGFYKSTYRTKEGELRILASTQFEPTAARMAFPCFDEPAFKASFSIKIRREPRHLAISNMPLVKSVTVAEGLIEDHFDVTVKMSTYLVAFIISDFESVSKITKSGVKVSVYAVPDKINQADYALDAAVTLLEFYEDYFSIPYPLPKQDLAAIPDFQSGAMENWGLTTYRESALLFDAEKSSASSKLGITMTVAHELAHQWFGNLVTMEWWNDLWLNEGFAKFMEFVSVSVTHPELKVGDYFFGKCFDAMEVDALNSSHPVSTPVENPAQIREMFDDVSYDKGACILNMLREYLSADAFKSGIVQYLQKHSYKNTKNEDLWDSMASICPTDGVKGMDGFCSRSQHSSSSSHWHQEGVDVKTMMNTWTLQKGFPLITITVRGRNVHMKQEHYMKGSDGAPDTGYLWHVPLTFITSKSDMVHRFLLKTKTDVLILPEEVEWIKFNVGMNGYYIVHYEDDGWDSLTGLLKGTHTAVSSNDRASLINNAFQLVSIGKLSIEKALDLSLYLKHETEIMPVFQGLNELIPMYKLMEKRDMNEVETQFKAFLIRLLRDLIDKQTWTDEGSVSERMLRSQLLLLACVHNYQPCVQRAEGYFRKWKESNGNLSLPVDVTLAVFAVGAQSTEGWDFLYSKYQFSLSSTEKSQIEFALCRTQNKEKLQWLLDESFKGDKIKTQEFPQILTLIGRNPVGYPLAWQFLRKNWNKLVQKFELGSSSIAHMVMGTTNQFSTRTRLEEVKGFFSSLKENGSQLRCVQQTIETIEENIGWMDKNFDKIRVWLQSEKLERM

IC50, > 5000 nM:
CS(=O)(=O)c1ccc(C(=O)O)cc1S(=O)(=O)Nc1cc(C(F)(F)F)ccc1N1CCCCC1 [Example 225, 4-(methylsulfonyl)-3-(N-(2-(piperidin-1-yl)-5-(trifluoromethyl)phenyl)sulfamoyl)benzoic acid]

IC50, < 5000 nM:
O=C(O)c1ccc(OCC(F)(F)F)c(S(=O)(=O)Nc2cc(C(F)(F)F)ccc2N2CCCCC2)c1 [Example 227, 3-(N-(2-(piperidin-1-yl)-5-(trifluoromethyl)phenyl)sulfamoyl)-4-(2,2,2-trifluoroethoxy)benzoic acid]
CCc1ccc(C(=O)O)cc1S(=O)(=O)Nc1cc(S(C)(=O)=O)ccc1N1CC(C)(O)C1 [Example 255, 4-ethyl-3-(N-(2-(3-hydroxy-3-methylazetidin-1-yl)-5-(methylsulfonyl)phenyl)sulfamoyl)benzoic acid]

IC50, < 500 nM:
CCc1ccc(C(=O)O)cc1S(=O)(=O)Nc1cc(Cl)ccc1N1CCC(F)(F)CC1 [Example 217, 3-(N-(5-chloro-2-(4,4-difluoropiperidin-1-yl)phenyl)sulfamoyl)-4-ethylbenzoic acid]
COc1ccc(C(=O)O)cc1S(=O)(=O)Nc1cc(Cl)ccc1N1CCC(F)(F)CC1 [Example 218, 3-(N-(5-chloro-2-(4,4-difluoropiperidin-1-yl)phenyl)sulfamoyl)-4-methoxybenzoic acid]
COc1ccc(C(=O)O)cc1S(=O)(=O)Nc1cc(Cl)ccc1N1CCCC(F)(F)C1 [Example 219, 3-(N-(5-chloro-2-(3,3-difluoropiperidin-1-yl)phenyl)sulfamoyl)-4-methoxybenzoic acid]
CCc1ccc(C(=O)O)cc1S(=O)(=O)Nc1cc(Cl)ccc1N1CCCC(F)(F)C1 [Example 220, 3-(N-(5-chloro-2-(3,3-difluoropiperidin-1-yl)phenyl)sulfamoyl)-4-ethylbenzoic acid]
COc1ccc(C(=O)O)cc1S(=O)(=O)Nc1cc(C#N)ccc1N1CCC(F)(F)CC1 [Example 221, 3-(N-(5-cyano-2-(4,4-difluoropiperidin-1-yl)phenyl)sulfamoyl)-4-methoxybenzoic acid]
CCc1ccc(C(=O)O)cc1S(=O)(=O)Nc1cc(C#N)ccc1N1CCC(F)(F)CC1 [Example 222, 3-(N-(5-cyano-2-(4,4-difluoropiperidin-1-yl)phenyl)sulfamoyl)-4-ethylbenzoic acid]
COc1ccc(C(=O)O)cc1S(=O)(=O)Nc1cc(C#N)ccc1N1CCCC(O)C1 (stereo not shown) [Example 223, 3-(N-(5-cyano-2-(3-hydroxypiperidin-1-yl)phenyl)sulfamoyl)-4-methoxybenzoic acid]
CCc1ccc(C(=O)O)cc1S(=O)(=O)Nc1cc(C#N)ccc1N1CCCC(O)C1 (stereo not shown) [Example 224, 3-(N-(5-cyano-2-(3-hydroxypiperidin-1-yl)phenyl)sulfamoyl)-4-ethylbenzoic acid]
CC(C)(O)c1ccc(C(=O)O)cc1S(=O)(=O)Nc1cc(C(F)(F)F)ccc1N1CCCCC1 [Example 228, 4-(2-hydroxypropan-2-yl)-3-(N-(2-(piperidin-1-yl)-5-(trifluoromethyl)phenyl)sulfamoyl)benzoic acid]
O=C(O)c1ccc(CO)c(S(=O)(=O)Nc2cc(C(F)(F)F)ccc2N2CCCCC2)c1 [Example 229, 4-(hydroxymethyl)-3-(N-(2-(piperidin-1-yl)-5-(trifluoromethyl)phenyl)sulfamoyl)benzoic acid]
CCc1ccc(C(=O)O)cc1S(=O)(=O)Nc1ccc(C(F)(F)F)cc1N1CCCCC1 [Example 230, 4-ethyl-3-(N-(2-(piperidin-1-yl)-4-(trifluoromethyl)phenyl)sulfamoyl)benzoic acid]
CSc1ccc(C(=O)O)cc1S(=O)(=O)Nc1cc(C(F)(F)F)ccc1N1CCCCC1 [Example 232, 4-(methylthio)-3-(N-(2-(piperidin-1-yl)-5-(trifluoromethyl)phenyl)sulfamoyl)benzoic acid]
COc1ccc(C(=O)O)cc1S(=O)(=O)Nc1cc(C#N)ccc1N1CCCC(F)(F)C1 [Example 233, 3-(N-(5-cyano-2-(3,3-difluoropiperidin-1-yl)phenyl)sulfamoyl)-4-methoxybenzoic acid]
CCc1ccc(C(=O)O)cc1S(=O)(=O)Nc1cc(C#N)ccc1N1CCCC(F)(F)C1 [Example 234, 3-(N-(5-cyano-2-(3,3-difluoropiperidin-1-yl)phenyl)sulfamoyl)-4-ethylbenzoic acid]
COc1ccc(C(=O)O)cc1S(=O)(=O)Nc1cc(C(F)(F)F)ccc1N1CCCC[C@H]1C [Example 235, I-4-methoxy-3-(N-(2-(2-methylpiperidin-1-yl)-5-(trifluoromethyl)phenyl)sulfamoyl)benzoic acid]
CCc1ccc(C(=O)O)cc1S(=O)(=O)Nc1cc(C(F)(F)F)ccc1N1CCCC[C@H]1C [Example 236, I-4-ethyl-3-(N-(2-(2-methylpiperidin-1-yl)-5-(trifluoromethyl)phenyl)sulfamoyl)benzoic acid]
COc1ccc(C(=O)O)cc1S(=O)(=O)Nc1cc(C(F)(F)F)ccc1N1CCC(C#N)CC1 [Example 237, 3-(N-(2-(4-cyanopiperidin-1-yl)-5-(trifluoromethyl)phenyl)sulfamoyl)-4-methoxybenzoic acid]
CCc1ccc(C(=O)O)cc1S(=O)(=O)Nc1cc(C(F)(F)F)ccc1N1CCC(C#N)CC1 [Example 238, 3-(N-(2-(4-cyanopiperidin-1-yl)-5-(trifluoromethyl)phenyl)sulfamoyl)-4-ethylbenzoic acid]
COc1ccc(C(=O)O)cc1S(=O)(=O)Nc1cc(C(F)(F)F)ccc1N1CCCC[C@@H]1C [Example 239, (S)-4-methoxy-3-(N-(2-(2-methylpiperidin-1-yl)-5-(trifluoromethyl)phenyl)sulfamoyl)benzoic acid]
CCc1ccc(C(=O)O)cc1S(=O)(=O)Nc1cc(C(F)(F)F)ccc1N1CCCC[C@@H]1C [Example 240, (S)-4-ethyl-3-(N-(2-(2-methylpiperidin-1-yl)-5-(trifluoromethyl)phenyl)sulfamoyl)benzoic acid]
CCc1ccc(C(=O)O)cc1S(=O)(=O)Nc1cc(S(C)(=O)=O)ccc1N1CCCCC1 [Example 241, 4-ethyl-3-(N-(5-(methylsulfonyl)-2-(piperidin-1-yl)phenyl)sulfamoyl)benzoic acid]
CCc1ccc(C(=O)O)cc1S(=O)(=O)Nc1cc(-n2cnnn2)ccc1N1CCCCC1 [Example 242, 4-ethyl-3-(N-(2-(piperidin-1-yl)-5-(tetrazol-1-yl)phenyl)sulfamoyl)benzoic acid]
COc1ccc(C(=O)O)cc1S(=O)(=O)Nc1cc(C(F)(F)F)ccc1N1CCC[C@@H](O)C1 [Example 243, I-3-(N-(2-(3-hydroxypiperidin-1-yl)-5-(trifluoromethyl)phenyl)sulfamoyl)-4-methoxybenzoic acid]
COc1ccc(C(=O)O)cc1S(=O)(=O)Nc1cc(C(F)(F)F)ccc1N1CCC[C@H](O)C1 [Example 244, (S)-3-(N-(2-(3-hydroxypiperidin-1-yl)-5-(trifluoromethyl)phenyl)sulfamoyl)-4-methoxybenzoic acid]
COc1ccc(C(=O)O)cc1S(=O)(=O)Nc1cc(S(C)(=O)=O)ccc1N1CCC[C@@H](O)C1 [Example 245, I-3-(N-(2-(3-hydroxypiperidin-1-yl)-5-(methylsulfonyl)phenyl)sulfamoyl)-4-methoxybenzoic acid]
COc1ccc(C(=O)O)cc1S(=O)(=O)Nc1cc(S(C)(=O)=O)ccc1N1CCC[C@H](O)C1 [Example 246, (S)-3-(N-(2-(3-hydroxypiperidin-1-yl)-5-(methylsulfonyl)phenyl)sulfamoyl)-4-methoxybenzoic acid]
CCc1ccc(C(=O)O)cc1S(=O)(=O)Nc1cc(S(C)(=O)=O)ccc1N1CCC[C@H](O)C1 [Example 247, (S)-4-ethyl-3-(N-(2-(3-hydroxypiperidin-1-yl)-5-(methylsulfonyl)phenyl)sulfamoyl)benzoic acid]
COc1ccc(C(=O)O)cc1S(=O)(=O)Nc1cc(-n2cnnn2)ccc1N1CCC[C@@H](O)C1 [Example 248, I-3-(N-(2-(3-hydroxypiperidin-1-yl)-5-(tetrazol-1-yl)phenyl)sulfamoyl)-4-methoxybenzoic acid]
CCc1ccc(C(=O)O)cc1S(=O)(=O)Nc1cc(C(F)(F)F)ccc1N1CCC[C@@H](O)C1 [Example 249, I-4-ethyl-3-(N-(2-(3-hydroxypiperidin-1-yl)-5-(trifluoromethyl)phenyl)sulfamoyl)benzoic acid]
CCc1ccc(C(=O)O)cc1S(=O)(=O)Nc1cc(C(F)(F)F)ccc1N1CCC[C@H](O)C1 [Example 250, (S)-4-ethyl-3-(N-(2-(3-hydroxypiperidin-1-yl)-5-(trifluoromethyl)phenyl)sulfamoyl)benzoic acid]
CCc1ccc(C(=O)O)cc1S(=O)(=O)Nc1cc(S(C)(=O)=O)ccc1N1CCC[C@@H](O)C1 [Example 251, I-4-ethyl-3-(N-(2-(3-hydroxypiperidin-1-yl)-5-(methylsulfonyl)phenyl)sulfamoyl)benzoic acid]
CCc1ccc(C(=O)O)cc1S(=O)(=O)Nc1cc(-n2cnnn2)ccc1N1CCC[C@@H](O)C1 [Example 252, I-4-ethyl-3-(N-(2-(3-hydroxypiperidin-1-yl)-5-(tetrazol-1-yl)phenyl)sulfamoyl)benzoic acid]
COc1ccc(C(=O)O)cc1S(=O)(=O)Nc1cc(-n2cnnn2)ccc1N1CCC[C@H](O)C1 [Example 253, (S)-3-(N-(2-(3-hydroxypiperidin-1-yl)-5-(tetrazol-1-yl)phenyl)sulfamoyl)-4-methoxybenzoic acid]
CCc1ccc(C(=O)O)cc1S(=O)(=O)Nc1cc(-n2cnnn2)ccc1N1CCC[C@H](O)C1 [Example 254, (S)-4-ethyl-3-(N-(2-(3-hydroxypiperidin-1-yl)-5-(tetrazol-1-yl)phenyl)sulfamoyl)benzoic acid]
